Values joined by “and” are separate entries in the source; they are usually repeats but may differ in a detail not shown here. Equal entries are not always repeated. “Also recorded” adds a separate entry of the source. Structures can show the parent of a compound that is named as a salt.
Legend:
[1] = test system: human hepatocellular carcinoma cells HepG2; assay: High Content Imaging of HepG2 cells: nuclei count, necrosis (PI), apoptosis (caspase 3/7); format: cell-based; set-up: Nuclei Area wv1 / Mean nuclei area: unit not given here; settings: for Mean nuclei area / Mean nuclei intensity / % of early apoptotic cells (PI negative, caspase positive) / % of necrotic and late apoptotic cells (PI positive) / All Targets.PI negative.casp positive (%) / All Targets.PI positive (%) / Nuclei Area wv1 / Nuclei Intensity wv1 / Nuclei Count wv1 / % of necrotic and late apoptotic cells (PI positive); cell toxicity level / inhibition of cell proliferation (in words) / cytotoxic effects (in words) / effect on cell proliferation (in words): HepG2, 48 h; for Mean nuclei intensity: Hoechst 33342; for % of early apoptotic cells (PI negative, caspase positive) / % of necrotic and late apoptotic cells (PI positive) / % of necrotic and late apoptotic cells (PI positive); cell toxicity level: mean of 3 wells; for All Targets.PI negative.casp positive (%) / All Targets.PI positive (%) / Nuclei Area wv1 / Nuclei Intensity wv1: single well; for Nuclei Count wv1: single well (concentration from plate map the 5th table); for inhibition of cell proliferation (in words): 50 μM, nuclei count; for effect on HepG2 cell death / apoptosis compared with Vorinostat (in words): HepG2, 48 h, 1, 5 and 50 μM; for cytotoxic effects (in words) / effect on cell proliferation (in words): 1 and 5 μM
Description: proliferation and cell death mechanisms, using High Content Imaging assay. The following parameters were assessed: nuclei count to measure inhibiting of the proliferation; cell membrane permeability to assess general cytotoxicity and necrosis; caspase activation to test apoptosis. […]
Human hepatocellular carcinoma HepG2 cell line was used to test biological action of Vorinostat and its analogues. Cell line was obtained from Leibniz Institute DSMZ - German Collection of Microorganisms and Cell Cultures. Cells were cultured in DMEM medium (Hyclone, Cat# SH30003.04) supplemented with 10% fetal bovine serum (Sigma-Aldrich, Cat# F7524), 100 units/mL penicillin and 100 μg/mL streptomycin (Sigma-Aldrich, Cat# P4333).
Before plating, the cells were first washed with PBS and then trypsinized with 0.01% trypsin solution (Sigma-Aldrich, Cat# T4174) in DPBS. The appropriate volume of culture medium was placed in a flask to stop further trypsinization, then the cells were centrifugated at 200 x g for 4 min, resuspended in fresh complete medium and counted using a counting chamber after being stained with Trypan Blue. […]
μL total volume per well and incubated at 37 °C/5%CO2/95%RH overnight. Vorinostat and test compounds were dissolved in 100% DMSO at a concentration of 10 mM and stored at -20 °C as single-use aliquots. Next day 20 μL of medium with compounds was added to the cells to the final DMSO concentration […]. Treatment for 48 hours was performed under growth conditions.
Compounds were assessed at the final concentrations 1, 5 and 50 μM (each in triplicates - 3 wells, 9 fields of view per well). Staining for nuclei, apoptotic cells with activated caspase 3/7 and dead […]
cells with permeabilized membrane was performed for 30 min under growth conditions in staining […]
3/7 Detection Reagent (Invitrogen, Cat# C10423) and 1 μM Propidium Iodide (Invitrogen, Cat# P3566) in medium complete. The cells were imaged with InCell Analyzer 6500, 20x obj. Image […]
Data were analyzed in GraphPad Prism 9.
Supplementary Fig. 16. Workflow of multiplexed cells staining.
Multiplexed staining allows to test cell toxicity and distinguish between necrosis and apoptosis within one single experiment (Supplementary Fig. 16).
CellEvent Caspase-3/7 Green Detection Reagent labels cells with activated caspases. Propidium Iodide (PI) labels dead cells with permeabilized membrane. Hoechst-positive cells were counted to assess the % of cell toxicity. PI-positive cells are dead – this is a fraction of necrotic and late apoptotic cells, used for assessing of cytotoxicity/necrosis. Early apoptotic cells are caspase-positive, PI-negative because their membrane isn’t compromised yet. Percentages of cells of certain […]
background and comparing with overall number of cells.

[2] = in vitro; settings: both, human
[3] = Thermal and chemical stability; format: physicochemical
Description: We also examined the thermal and chemical stability of the synthesized 2-oxabicyclo[2.2.2]octanes. As representative examples, we selected three molecules: isomeric acids 47, 54, and amine 52. All 2-oxabicyclo[2.2.2]octanes were crystalline solids that were stable in air. We stored them in stock at room temperature in closed vials and observed no changes according to ^1H NMR after one year. […] Treatment of the selected 2-oxabicyclo[2.2.2]octanes with aq. 1 M HCl, or aq.

[4] = microsomes, pH 7.4, % Remaining, Mean of 2

Row | Structure (SMILES) | Mean nuclei area ([1]; 1 uM) | Mean nuclei intensity ([1]; 1 uM) | % of early apoptotic cells (PI negative, caspase positive) ([1]; 1 uM) | % of necrotic and late apoptotic cells (PI positive) ([1]; 1 uM) | All Targets.PI negative.casp positive (%) ([1]; 1 uM) | All Targets.PI positive (%) ([1]; 1 uM) | Nuclei Area wv1 ([1]; 1 uM) | Nuclei Count wv1 ([1]; 1 uM) | Mean nuclei area ([1]; 5 uM) | Mean nuclei intensity ([1]; 5 uM) | % of early apoptotic cells (PI negative, caspase positive) ([1]; 5 uM) | % of necrotic and late apoptotic cells (PI positive) ([1]; 5 uM) | All Targets.PI negative.casp positive (%) ([1]; 5 uM) | All Targets.PI positive (%) ([1]; 5 uM) | Nuclei Area wv1 ([1]; 5 uM) | Nuclei Intensity wv1 ([1]; 5 uM) | Nuclei Count wv1 ([1]; 5 uM) | Mean nuclei area ([1]; 50 uM) | Mean nuclei intensity ([1]; 50 uM) | % of early apoptotic cells (PI negative, caspase positive) ([1]; 50 uM) | other results
1 | O=C(CCCCCCC(=O)Nc1ccccc1)NO [Vorinostat, reference compound] | 133.3 | 3539.0 RFU | 1.4% | 2.0% | 1.09% and 1.685% and 1.464% | 1.46% and 2.372% and 2.236% | 132.596 and 129.806 and 137.55 | 5137 and 4806 and 4919 | 133.4 | 4444.0 RFU | 7.2% | 10.4% | 8.109% and 5.087% and 8.342% | 11.8095% and 7.619% and 11.7647% | 135.125 and 131.698 and 133.281 | 4725.81 and 3784.72 and 4822.36 | 3675 and 4187 and 3740 | 122.1 | 1952.0 RFU | 12.2% | Nuclei Intensity wv1 ([1]; 1 uM): 3323.23 and 3018.81 and 4275.36; % of necrotic and late apoptotic cells (PI positive); cell toxicity level ([1]; 50 uM): 77% and 77.5%; All Targets.PI negative.casp positive (%) ([1]; 50 uM): 12.2839% and 13.7268% and 10.5715%; All Targets.PI positive (%) ([1]; 50 uM): 77.0504% and 75.6692% and 79.9029%; Nuclei Area wv1 ([1]; 50 uM): 120.16 and 121.222 and 124.941; Nuclei Intensity wv1 ([1]; 50 uM): 1713 and 2196.3 and 1947.17; Nuclei Count wv1 ([1]; 50 uM): 2719 and 2914 and 2677
2 | O=C(CCCCCCC(=O)NC12CCC(CC1)OC2)NO [Compound 88] | 117.1 | 2764.0 RFU | 0.344% | 0.9% | 0.2791% and 0.3975% and 0.3542% | 1.031% and 0.9564% and 0.6961% | 117.054 and 118.289 and 116.039 | 8241 and 8051 and 8188 | 118.3 | 3381.0 RFU | 0.463% | 0.8% | 0.548% and 0.4031% and 0.4377% | 0.8821% and 0.8306% and 0.721% | 119.866 and 117.043 and 117.864 | 3478.61 and 2783.26 and 3882.1 | 7482 and 8187 and 7767 | 129.6 | 3968.0 RFU | 12.0% | Nuclei Intensity wv1 ([1]; 1 uM): 2311.93 and 2195.12 and 3784.44; % of necrotic and late apoptotic cells (PI positive); cell toxicity level ([1]; 50 uM): 18% and 18.5%; inhibition of cell proliferation (in words) [1]: inhibited cell proliferation at 50 μM concentration to the same level as Vorinostat; All Targets.PI negative.casp positive (%) ([1]; 50 uM): 11.5569% and 11.4167% and 12.9144%; All Targets.PI positive (%) ([1]; 50 uM): 19.3713% and 17.5096% and 18.5033%; Nuclei Area wv1 ([1]; 50 uM): 130.383 and 125.337 and 133.198; Nuclei Intensity wv1 ([1]; 50 uM): 4177.18 and 3221.5 and 4506.24; Nuclei Count wv1 ([1]; 50 uM): 3340 and 3381 and 3167; effect on HepG2 cell death / apoptosis compared with Vorinostat (in words) [1]: active; cytotoxic effects (in words) [1]: did not demonstrate any significant cytotoxic effects; effect on cell proliferation (in words) [1]: did not have any significant effects
3 | Cc1ccc(NC(=O)c2ccc(CN3CCN(C)CC3)cc2)cc1Nc1nccc(-c2cccnc2)n1 [Imatinib] | – | – | – | – | – | – | – | – | – | – | – | – | – | – | – | – | – | – | – | – | remaining at 40 min, 2 µM ([2]; microsomes, pH 7.4, % Remaining without cofactor, Mean of 2): 88%; remaining at 7 min, 2 µM [2, 4]: 109%; remaining at 0.25 h, 2 µM [2, 4]: 93%; remaining at 25 min, 2 µM [2, 4]: 82%; remaining at 40 min, 2 µM [2, 4]: 66%
4 | CC(C)NCC(O)COc1cccc2ccccc12 (racemic) [Propranolol, (+,-) Propranolol hydrochloride] | – | – | – | – | – | – | – | – | – | – | – | – | – | – | – | – | – | – | – | – | remaining at 40 min, 2 µM [2, 4]: 66%; half-life at 2 µM ([2]; microsomes, pH 7.4, t1/2: half-time of a metabolic decomposition): 1.02 h; k el at 2 µM ([2]; pH 7.4, kel (elimination constant)): 0.000183 s⁻¹
5 | CC12CCC(CN)(CC1)OC2 [Compound 52] | – | – | – | – | – | – | – | – | – | – | – | – | – | – | – | – | – | – | – | – | chemical stability in acid ([3]; aq. 1 M HCl, room temperature, 1 h): no decomposition; chemical stability in base ([3]; aq. 1 M NaOH, room temperature, 1 h): no decomposition; thermal stability ([3]; heating at 100 °C for five minutes): remained stable; stability on storage ([3]; in air, room temperature, closed vials, one year, 1H NMR): no changes
6 | O=C(CCCCCCC(=O)NC12CCC(CC1)CC2)NO [Compound 89] | 117.0 | 3374.0 RFU | 0.444% | 0.6% | 0.4175% and 0.3796% and 0.5358% | 0.5526% and 0.5457% and 0.7144% | 115.697 and 116.603 and 118.647 | 8143 and 8429 and 8399 | 120.9 | 4138.0 RFU | 0.563% | 0.9% | 0.4763% and 0.5673% and 0.6459% | 0.9922% and 0.9996% and 0.6321% | 120.224 and 120.771 and 121.802 | 4041.68 and 3853.68 and 4517.41 | 7559 and 7403 and 7277 | 115.2 | 2088.0 RFU | 9.5% | % of necrotic and late apoptotic cells (PI positive); cell toxicity level ([1]; 50 uM): 67% and 67.1%; inhibition of cell proliferation (in words) [1]: inhibited cell proliferation at 50 μM concentration to the same level as Vorinostat; All Targets.PI negative.casp positive (%) ([1]; 50 uM): 10.5117% and 9.102% and 8.933%; All Targets.PI positive (%) ([1]; 50 uM): 65.2916% and 67.7168% and 68.1969%; Nuclei Area wv1 ([1]; 50 uM): 113.454 and 115.571 and 116.43; Nuclei Intensity wv1 ([1]; 50 uM): 1984.47 and 1672.21 and 2607.1; Nuclei Count wv1 ([1]; 50 uM): 2521 and 2571 and 2418; effect on HepG2 cell death / apoptosis compared with Vorinostat (in words) [1]: activity profile was the closest to Vorinostat; also recorded: active; cytotoxic effects (in words) [1]: did not demonstrate any significant cytotoxic effects; effect on cell proliferation (in words) [1]: did not have any significant effects

Source: article PMC10545790
